Reference: PMC5359555, “Mechanistic and structural basis of bioengineered bovine Cathelicidin-5 with optimized therapeutic activity” (Scientific Reports, 2017)
Where a SMILES comes first, the peptide text is derived from it.

Tests used:
[1] = system: E. coli BL21 cells; experiment: Flow cytometry propidium iodide influx, E. coli BL21; assay type: cell-based, Escherichia coli BL21; conditions: E. coli BL21, at peptide MIC; 30 min peptide, 10 μg ml^−1 PI
Procedure: The effect of peptides on the cell-membrane integrity of E. coli BL21 and DH5α and lymphoma cells was studied using the flow cytometer analysis as described elsewhere. The cells were cultured and washed three times using PBS buffer and incubated for 30 minutes with peptides at different concentration. The incubated lymphoma cells were further processed referring to the annexin V-FITC apoptosis kit. Peptide treated and untreated cells (E. coli/lymphoma) were stained with 10 μg ml^−1 propidium iodide (PI) and incubated for additional 30 min. The incubated cells were washed using PBS to remove unbound dye and flow cytometry analysis was carried out using the FACSCalibur and analyzed by CellQuest Pro Version 5.2.1 software (BD Biosciences, NJ, USA).

[2] = system: E. coli BL21 strain; experiment: Transmission electron microscopy, E. coli BL21; assay type: cell-based, Escherichia coli BL21; conditions: E. coli BL21, 2 μM, 1 hour 37 °C
Procedure: (§1) E. coli DH5α and BL21 strains were subjected to TEM analysis. E. coli strains were cultured at 37°C in LB broth to mid-log phase and harvested by centrifugation at 5000 g for 5 minutes. The cell pellets were re-suspended in fresh LB media with an OD600 = 0.18. A peptide (Syn1) solution at a concentration of 2 μM (MIC) was added to E. coli DH5α and BL21 strains and the samples were incubated at 37°C for 1 hour. The culture was centrifuged at 5000 g for 5 minutes and the cell pellets were collected. The cell pellets were washed twice and re-suspended in 1 mL fixation buffer that contains 2% formaldehyde, 2.5% glutaryldehide in 0.1 M phosphate buffer (pH = 7.4). The fixed bacterial cells were observed under the microscope, JEM-1011 (JEOL, Tokyo, Japan).

[3] = system: E. coli DH5α strain; experiment: Transmission electron microscopy, E. coli DH5α; assay type: cell-based, Escherichia coli DH5α; conditions: 4 μM
Procedure: as §1, with “A peptide (Syn1) solution at a concentration of 2 μM (MIC) was added to E. coli DH5α and BL21 strains and the samples were incubated at 37°C for 1 hour.” left out

[4] = system: RBCs; experiment: Hemolytic assay (hemoglobin release); assay type: cell-based; conditions: 30 μM; RBCs hematocrit ~5%, 1 h 37 °C, absorbance 540 nm, 100% = 2% Triton X-100
Procedure: Plasmodium falciparum strain 3D7 was cultured in RPMI-1640 supplemented with 25 mg/l L-Glutamine; HEPES, NaHCO3; 50 mg/l Hypoxanthin; Gentamicien; 10% human serum; and RBCs at 3% hematocrit in an atmosphere of 5% CO2, 5% O2, and 90% N2 at 37°C as previously described. The Plasmodium lactate dehydrogenase (pLDH) assay was performed to measure the parasitic growth inhibition as described elsewhere[49] with BMAP-28 and its analogues treatment. In brief, malstat reagent was added to a 96-well plate (100 μL in each well). A Plasmodium infected RBC mixture of 20 μL in each well was mixed thoroughly using a plate shaker. And then 10 μL of each 1 mg/ml diaphorase and Nitroblue tetrozolium (NBT) were added to each well. The solution in the 96-well plate was mixed properly until a brown color appears and the absorbance was measured at 650 nm under a plate reader (PowerWaveHT, BioTek Instruments, USA). The hemolytic assay was carried out as described earlier. Briefly, RBCs prepared from fresh blood (Hematocrit ~5%) were incubated for 1 h at 37 °C after addition of test peptides. Relative hemoglobin concentration in supernatants after centrifugation at 2000× g for 5 min was monitored by measuring the absorbance at 540 nm by the plate reader (PowerWaveHT, BioTek Instruments, USA). As positive control, 100% hemolysis was taken from samples in which 2% Triton X-100 was added.

[5] = system: B16-F1 melanoma cells; experiment: MTT cell-viability assay, B16-F1 melanoma; assay type: cell-based, mouse
Procedure: The T-cell lymphoma (Jurkat) and B-cell lymphoma (Ramos) were cultured using RPMI-1640 medium supplemented with 10% fetal calf serum (FCS), 100 U ml^−1 penicillin and 100 μg ml^−1 streptomycin. An initial cell densities of 5 × 10^3 cells/well was uniformly maintained in a 96 well plate. The B16-F1 melanoma cells were grown in DMEM medium containing 10% FCS, 100 U ml^−1 penicillin and 100 μg ml^−1 streptomycin and 55 μM 2-mercaptoethanol. The cells were trypsinized and plated in a 96-well plate at a density of 5 × 10^3 cells/well. The cells were grown overnight at 37 °C using a 5% CO2 incubator. The cells were treated with different peptide concentration followed by cell proliferation assay. The MTT assay kit (Cayman chemicals, USA) was used to measure the cell viability at a peptide concentration varying from 2 to 15 μM (in triplicate). Fresh culture medium and cells in medium without peptide were considered as negative and positive controls for viability assay and was monitored at 24, 48 and 72 h. The Cayman MTT cell proliferation assay protocol was followed, and the absorbance were recorded at 570 nm using a microplate reader (PowerWaveHT, BioTek Instruments, USA).

[6] = system: osteoclasts (RANKL-induced from MDMs); experiment: RANKL-induced osteoclastogenesis; assay type: cell-based, mouse; conditions: 50 ng/ml RANKL plus M-CSF, TRAP staining after 4 days
Procedure: (§2) The C57BL/6 mice (8 weeks old male) were generated and maintained in a pathogen-free environment as described elsewhere. All animal experiments were carried out under approval from the Animal Research Committee of the Research Institute for Microbial Diseases (Osaka University, Osaka, Japan). All experiments were performed in accordance with relevant guidelines and regulations of Osaka University, Japan. The stromal cell-free osteoclast culture was performed using M-CSF-derived macrophage (MDMs) precursors. The bone marrow cells were flushed from femurs or tibias and cultured for 6 h in α-MEM supplemented with 10% FCS. The non-adherent cells were collected and plated in a 96-well plate at a density of 2 × 10^3 cells/well with 25 ng/ml M-CSF (PeproTech, Rocky Hill, NJ). The cell cultures were rinsed with PBS after 3 days incubation, and the adherent cells were used as MDMs. The MDMs were induced to differentiate into osteoclasts in the presence of 50 ng/ml RANKL plus M-CSF. The cells were treated with different peptide concentration to investigate the effect of peptides on the osteoclastogenesis process. After 4 days, TRAP staining was performed and TRAP positive multinucleated cell numbers (>3 nuclei) were counted.

[7] = system: B16-F1 melanoma tumor; experiment: In vivo B16-F1 melanoma mouse model; conditions: C57BL/6 mice n = 6, subcutaneous
Procedure: as §2, with “The MDMs were induced to differentiate into osteoclasts in the presence of 50 ng/ml RANKL plus M-CSF. The cells were treated with different peptide concentration to investigate the effect of peptides on the osteoclastogenesis process.” left out
Healthy C57BL/6 mice (n = 6) were administered with 30 μM Syn1 peptide mixed with 1 × 10^6 B16-F1 melanoma cells in 0.1 ml of saline via subcutaneous injections. […] The growth size of tumors were monitored in every two days and the tumor volume was measured by a dial-caliper on day 14 and 20 using the formula volume = width^2 × length × 0.52.

CC[C@H](C)[C@H](NC(=O)[C@H](CCCCN)NC(=O)[C@H](CCCNC(=N)N)NC(=O)CNC(=O)[C@H](Cc1ccccc1)NC(=O)[C@H](CO)NC(=O)[C@H](CCCNC(=N)N)NC(=O)[C@H](Cc1ccccc1)NC(=O)CNC(=O)CN)C(=O)N[C@@H](Cc1ccccc1)C(=O)N[C@@H](CCCNC(=N)N)C(=O)N[C@@H](C)C(=O)N[C@@H](Cc1c[nH]c2ccccc12)C(=O)N[C@@H](CCCCN)C(=O)N[C@@H](CCCCN)C(=O)N[C@@H](Cc1ccc(O)cc1)C(=O)NCC(N)=O [Syn1] (H-GGFRSFGRKIFRAWKKYG-NH2; N-terminus assumed)
PI influx [1]: ~ 100%
TEM observation (in words) [2]: membrane disruption and cell lysis
TEM: membrane abnormalities or disruption (in words) [3]: not observed
Hemoglobin release (%) / hemolysis [4]: 7.2%
concentration found to be active [5]: ~ 30 μM
anticancer activity (in words) ([5]; 10 μM): fairly low anticancer activity
activity in RANKL-induced osteoclastogenesis (in words) ([6]; 3 μM): significant activity
activity in RANKL-induced osteoclastogenesis (in words) ([6]; 10 μM): complete abolition
tumor formation (in words) ([7]; 30 μM Syn1 mixed with 1 × 10^6 B16-F1 cells in 0.1 ml saline, day 14 and 20): no tumor formation
survival (in words) ([7]; 30 μM Syn1 mixed with 1 × 10^6 B16-F1 cells): alive
